Measured values: PMC8001783, “New Lignanamides with Antioxidant and Anti-Inflammatory Activities Screened Out and Identified from Warburgia ugandensis Combining Affinity Ultrafiltration LC-MS with SOD and XOD Enzymes” (Antioxidants, 2021)
Several values for one entry are separate records, joined by “and”; a condition that tells them apart may be missing. Equal entries are not always repeated. Marks after values point to notes of the source that are not given here.

What was measured:
[1] = Ferric reducing antioxidant power (FRAP) assay; conditions: for FRAP value: 37 °C, 10 min, 593 nm, n = 3
Method: The ferric reducing antioxidant power assays on different extracts and pure compounds of stem barks from W. ugandensis were tested according to previous studies with slight modifications. Firstly, freshly prepared FRAP reagent (Fe^3+-TPTZ solution) was composed of FeCl3∙6H2O (20 mM in H2O), TPTZ (10 mM in 40 mM HCl), and acetate buffer (300 mM, pH = 3.6) at a ratio of 1:1:10 (v/v/v), then incubated at 37 °C after preparation, and used within 1–2 h. Secondly, 10 µL of appropriately diluted solution of samples was added to the 190 µL freshly prepared FRAP reagent in 96-well plate. Thirdly, the mixtures were gently shaken and put at 37 °C for 10 min. Finally, the absorbance was recorded at 593 nm with multifunctional microplate reader. Trolox was used as a positive control, and MeOH was used as blank control. Each of the samples and controls were tested in triplicate (n = 3). The antioxidant activities of FRAP were expressed as FRAP values and TEAC values. The FRAP values were calculated and expressed as millimoles of Fe^2+ equivalents per gram of sample (mmol Fe^2+/g) based on a calibration curve plotted using FeSO4∙7H2O as standard at a concentration ranging from 0.0185 to 1.5 mM.

xanthine oxidase (XOD) = assay: Affinity ultrafiltration LC-MS/MS with XOD (relative binding affinity); set-up: key: -: No binding affinity; conditions: peaks of WUE-A4, XOD 2 U, 37 °C 1 h, n = 3
Method: (§1) The experimental conditions were proposed according to previous relevant studies. Briefly, the optimized experiment was composed of three steps. Incubation was the first step, where 100 μL WUE-A4 (10.0 mg/mL), 10 µL SOD (2 U) or XOD (2 U), and 90 µL Tris-HCl (pH = 7.8) were mixed well in 1.5 mL EP tubes, and then incubated at 37 °C in the dark for 1 h. Meanwhile, the incubation operations of inactivated enzymes (inactivated enzymes were obtained by heating enzymes in a 99 °C water bath for 10 min) were the same as the active enzymes. Adsorption was the second step, where the incubated solutions were transferred to ultrafiltration tubes with 30 KDa (for SOD) or 10 KDa (for XOD) ultrafiltration membranes and then centrifuged at 10,000 rpm for 10 min at 25 °C. Simultaneously, components which had no binding affinity to enzymes were washed out. Immediately, 300 µL of Tris-HCl solution (pH = 7.8) was added to the ultrafiltration tubes and centrifuged at 10,000 rpm for 5 min at 25 °C to remove the potential unbound components. Desorption was the third step, where 300 µL of 90% (v/v) MeOH-H2O was added and incubated for 10 min at room temperature, and the mixed solutions were centrifuged at 10,000 rpm for another 10 min at 25 °C. After that, the desorption process was repeated two times to release those components with specific bindings to SOD or XOD from the enzyme-ligand complexes. Finally, those ultrafiltrates were dried and reconstituted in 50 µL MeOH for the HPLC-UV/ESI-MS/MS analysis.
(§2) HPLC-UV/ESI-MS/MS was carried out to characterize the components in WUE-A4 before and after ultrafiltration by using a Thermo Accela 600 series HPLC connected with a TSQ Quantum Access MAX mass spectrometer (Thermo Fisher Scientific, San Jose, CA, USA). A Waters Symmetry RP-C18 column (4.6 × 250 mm, 5 µm) was used to perform chromatographic analysis at 30 °C, and the mobile phase consisted of H2O with 0.1% formic acid (A) and ACN (B). The optimized HPLC elution procedures were as follows: 0–15 min, 17% B; 15–40 min, 17–30% B, 40–42 min: 30–56% B. The flow rate was 0.8 mL/min, the injection volume was 10 µL, and the HPLC-UV chromatograms were detected at a wavelength of 254 nm. The negative ion modes were applied to obtained ESI-MS/MS data. Moreover, the parameters of instrument were set as follows: the vaporizer temperature was 350 °C, the capillary temperature was 250 °C, the spray voltage was 3000 V, the cone voltage energy was 40 V, the collision energy was 10 V, the sheath gas pressure was 40 psi, the aux gas pressure was 10 psi, the drying gas flow rate was 6.0 L/min, and the mass range was set from 50 to 1100 (m/z) in the full-scan mode. Finally, the Thermo Xcalibur ChemStation (Thermo Fisher Scientific) was used for data acquisition and analysis.
(§3) For further evaluation of the affinity binding strength between the potential ligands and the target enzymes, the relative binding affinity (RBA) was employed to compare the variation of the correlated peak areas in the UF-HPLC-UV chromatograms before and after activation. The RBA formula is expressed as RBA = Aactive/Ainactivated, where the Aactive and Ainactivated represent the peak areas obtained from the WUE-A4 samples with activated and inactivated SOD or XOD, respectively.

[2] = DPPH free radical scavenging assay; conditions: pure compounds; 30 min, 517 nm, n = 3
Method: The DPPH free radical scavenging activities of extracts and pure compounds from stem barks of W. ugandensis were tested according to previous studies with slight modifications. Firstly, 10 µL solutions of the samples, appropriately diluted with MeOH, were homogeneously mixed with 190 µL solution of DPPH (0.1 mM in MeOH) in a 96-well plate. Secondly, the mixtures were gently shaken and put at room temperature for 30 min in the darkness. Finally, the absorbance was recorded at 517 nm with multifunctional microplate reader. Trolox was used as positive control, and MeOH was used as blank control. Each of the samples and controls were tested in triplicate (n = 3). The antioxidant activities of DPPH were expressed as IC50 (concentration of samples caused 50% inhibition) and TEAC values. The TEAC values were calculated from the standard curve of Trolox and expressed as millimoles of Trolox equivalents per gram of sample (mmol TE/g). The inhibition of the DPPH radical was calculated according to the following formula:DPPH scavenging activity (%) = (1 − absorbance of sample/absorbance of blank control) × 100,(1) where DPPH scavenging activities (%) were plotted against the concentration of samples to obtain the IC50.

[3] = test system: superoxide dismutase (SOD); assay: Affinity ultrafiltration LC-MS/MS with SOD (relative binding affinity); set-up: key: -: No binding affinity; conditions: peaks of WUE-A4, SOD 2 U, 37 °C 1 h, n = 3
Method: as §1, §2, §3

[4] = test system: LPS-induced NO production in RAW 264.7 macrophages; set-up: method as in doi:10.5012/bkcs.2013.34.10.3105, PMID 29177586, PMID 31888376; conditions: cited from earlier work

Compound | UF-RBA XOD (relative binding affinity = Aactive/Ainactivated) (xanthine oxidase (XOD)) | UF-RBA XOD (relative binding affinity = Aactive/Ainactivated) (xanthine oxidase (XOD); listed as peak 14) | IC50 [2] | UF-RBA SOD (relative binding affinity = Aactive/Ainactivated) [3] | UF-RBA SOD (relative binding affinity = Aactive/Ainactivated) ([3]; listed as peak 14) | UF-RBA XOD (relative binding affinity = Aactive/Ainactivated) (xanthine oxidase (XOD); listed as peak 11) | UF-RBA SOD (relative binding affinity = Aactive/Ainactivated) ([3]; listed as peak 11) | UF-RBA SOD (relative binding affinity = Aactive/Ainactivated) ([3]; listed as peak 1) | total ferric-reducing antioxidant power (FRAP) [1] [mmol Fe^2+/g] | FRAP value [1] | inhibitory effect against LPS-induced NO production [4]
COc1cc(C2c3c(cc(O)c(O)c3OC)C=C(C(=O)NCCc3ccc(O)cc3)C2C(=O)NCCc2ccc(O)cc2)cc(O)c1O (stereo not drawn) [compound 14] | 3.8 ± 0.5 ^a | 3.76 | 6.41 µM and 6.4 µM | 1.5 ± 0.1 ^c,d,e | 1.51 |  |  |  | 17.488 ± 1.625 | 17.488 ± 1.625 mmol Fe^2+/g and 17.5 ± 1.6 ^a mmol Fe^2+/g | 
O=C(/C=C/c1ccc(O)c(O)c1)NCCc1ccc(O)cc1 [compound 7, N-trans-caffeoyltyramine] | 1.1 ± 0.3 ^c,d |  | 636 ± 290 µM | 1.1 ± 0.3 ^e |  |  |  |  |  | 1.9 ± 0.1 ^c mmol Fe^2+/g | good inhibitory effects

Further lines, with some results ahead:

UF-RBA XOD (relative binding affinity = Aactive/Ainactivated) (xanthine oxidase (XOD)) | UF-RBA XOD (relative binding affinity = Aactive/Ainactivated) (xanthine oxidase (XOD); listed as peak 14) | IC50 [2] | UF-RBA SOD (relative binding affinity = Aactive/Ainactivated) [3] | UF-RBA SOD (relative binding affinity = Aactive/Ainactivated) ([3]; listed as peak 14) | UF-RBA XOD (relative binding affinity = Aactive/Ainactivated) (xanthine oxidase (XOD); listed as peak 11) | UF-RBA SOD (relative binding affinity = Aactive/Ainactivated) ([3]; listed as peak 11) | UF-RBA SOD (relative binding affinity = Aactive/Ainactivated) ([3]; listed as peak 1) | Compound | total ferric-reducing antioxidant power (FRAP) [1] [mmol Fe^2+/g] | FRAP value [1] | inhibitory effect against LPS-induced NO production [4]
- |  | 59.1 ± 4.1 µM | - |  | extremely low or no binding affinities | extremely low or no binding affinities |  | 1-(3,4-dihydroxy-5-methoxyphenyl)-1,2-dihydroxy-7,8-dihydroxy-N-[(3,4-dihydroxyphenyl)-ethyl]-N′-[(4-hydroxyphenyl)-ethyl]-6-methoxynaphthalene-2,3-dicarboxamide [compound 11] |  | 2.2 ± 0.1 ^c mmol Fe^2+/g | 
1.2 ± 0.6 ^c,d |  | 25.8 ± 1.4 µM | 1.9 ± 0.1 ^a,b,c |  |  |  | 1.93 | C[C@@H]1O[C@@H](O[C@@H]2[C@@H](O)[C@H](O)[C@@H](CO)O[C@H]2c2cc(-c3cc(=O)c4c(O)cc(O)cc4o3)cc(O)c2O)[C@H](O)[C@H](O)[C@H]1O [compound 1, 2-[3-[2-O-(6-deoxy-α-L-mannopyranosyl)-β-D-glucopyranosyl]-4,5-dihydroxyphenyl]-5,7-dihydroxy-4H-1-benzopyran-4-one] |  | 5.4 ± 0.7 ^b mmol Fe^2+/g | 
1.3 ± 0.2 ^c,d |  | 115 ± 20.8 µM | 1.3 ± 0.1 ^e |  |  |  |  | COc1cc(C2c3c(cc(OC)c(O)c3O)C=C(C(=O)NCCc3ccc(O)cc3)C2C(=O)NCCc2ccc(O)cc2)cc(O)c1O (stereo not drawn) [compound 13] |  | 1.3 ± 0.2 ^c mmol Fe^2+/g | 
